# Test system: people at high risk for vascular disease with either IFG, IGT, or early type 2 diabetes
# Assay: ORIGIN trial: microvascular outcomes
# Assay type: in vivo, human
# Excerpt: The composite microvascular outcome will be met by the development of any of the following: • Doubling of serum creatinine from study baseline (screening value) • Albuminuria progression, defined as a change from normoalbuminuria to either microalbuminuria or clinical proteinuria, or from microalbuminuria to clinical proteinuria using the definitions in the attached table.
# • Requirement for renal replacement therapy (eg, dialysis, renal transplant), or death due to renal failure • Use of retinal photocoagulation or vitrectomy for diabetic retinopathy, including macular edema
# There were 2 co-primary composite CV outcomes. The first was CV death, non-fatal MI or non-fatal stroke, and the second was a composite of any of these events or a revascularization procedure or hospitalization for heart failure. Secondary outcomes included a composite microvascular outcome comprising a doubling of serum creatinine from baseline, progression of albuminuria category from normoalbuminuria or microalbuminuria to microalbuminuria or overt nephropathy, renal replacement therapy, renal death, retinal photocoagulation or vitrectomy for retinopathy. They also included new type 2 diabetes developing by the time of the 1st post-trial oral glucose tolerance test in participants without baseline diabetes, and all-cause mortality. Other outcomes included incident cancers, CV hospitalizations, and angina. Cardiovascular and cancer outcomes were reviewed by adjudicators masked to treatment allocation. Episodes of hypoglycaemia since the prior visit were recorded at each visit. Symptomatic hypoglycemia was classified as confirmed if a concomitant recorded capillary glucose level was <3 mmol/L (54 mg/dL). Severe hypoglycemia was defined as hypoglycemia that required assistance plus either prompt recovery with glucose or glucagon or a documented capillary glucose ≦2.0 (36 mg/dL). New diabetes was diagnosed if 2 consecutive FPG levels within a 4-month period were ≧7 mM (126 mg/dL) during the trial; a diagnosis of diabetes was made by a physician and a pharmacologic antidiabetic agent was being taken and there was evidence of either a FPG ≧7 mM (126 mg/dL) or any glucose value ≧11.1 mM (200 mg/dL); either 1 or more capillary glucose levels were ≧11.1 mM (200 mg/dl) and a lab-measured FPG was ≧7 mmol/l (126 mg/dl) or a lab measured random glucose level was ≧11.1 mM (200 mg/dl) during down-titration of glargine insulin; or any FPG was ≧7 mM (126 mg/dl) or 2 hour plasma glucose was ≧11.1 mM (200 mg/dl) during the first oral glucose tolerance test.
# The microvascular outcome was a composite of: laser surgery or vitrectomy or blindness for diabetic retinopathy; development of renal death or the need for renal replacement treatment (dialysis or transplantation); doubling of serum creatinine; or progression from lesser to greater severity of microalbuminuria. The last 2 components are laboratory-based—the others are “clinical” microvascular outcomes.
# [1] = patients with a history of atrial fibrillation at baseline
substance,measurement,setting,value
(Gly A21) Arg (B31) Arg (B32) human insulin [insulin glargine],"Albumin Prog, N (%)",glargine group,1154
same,"Albumin Prog, Rate",glargine group,3.3
same,"Clin Microvasc, N (%)",glargine group,190
same,"Clin Microvasc, Rate",glargine group,0.5
same,"Double Cr, N (%)",glargine group,94
same,"Double Cr, Rate",glargine group,0.25
same,"Laser/Vitrect, N (%)",glargine group,79
same,"Laser/Vitrect, Rate",glargine group,0.22
same,"Microvascular, N (%)",glargine group,1280
same,"Microvascular, Rate",glargine group,3.7
same,"Renal Failure, N (%)",glargine group,36
same,"Renal Failure, Rate",glargine group,0.1
same,"Laser/Vitrect, HR (95% CI)","glargine vs standard, P 0.016","0.59 (0.38, 0.91)"
same,"Clin Microvasc, HR (95% CI)","glargine vs standard, P 0.038","0.74 (0.56, 0.98)"
same,"Microvascular, HR (95% CI)","glargine vs standard, P 0.066","0.90 (0.81, 1.01)"
same,"Double Cr, HR (95% CI)","glargine vs standard, P 0.09","0.70 (0.46, 1.06)"
same,"Albumin Prog, HR (95% CI)","glargine vs standard, P 0.17","0.92 (0.82, 1.04)"
same,"Renal Failure, HR (95% CI)","glargine vs standard, P 0.46","1.27 (0.67, 2.39)"
same,"microvascular outcomes, difference to standard care",insulin glargine vs standard care,no statistically significant difference
same,RR for Clinical Microvascular outcomes (non-laboratory-based),[1],0.42 (0.19-0.91)
same,RR for microvascular outcome,[1],0.74 (0.55-0.98)
same,relative risk (RR) for microvascular outcome,"patients with baseline A1c<6.4%, not significant",1.08
same,relative risk (RR) for microvascular outcome,"patients with baseline A1c≧6.4%, statistically significant",0.88 (0.79-0.98)

# — patent publication US20150065421A1, “BASAL INSULIN THERAPY” (SANOFI, priority 2012, published 2015)
